Test results published in patent publication US20170304260A1, “ALTRENOGEST FORMULATION AND USES THEREOF FOR ESTRUS SYNCHRONISATION IN ANIMALS” (priority 2014, published 2017).

Assay: Storage stability of microcapsule emulsion / powder (Method 1, spray-drying)
Type: physicochemical
Conditions: liquid and dry form of the microcapsule emulsion, ambient temperature
Procedure: Method 1: Dry Microcapsule Obtained by Atomisation (Spray-Drying)
The emulsion comprising the ingredients above was pre-homogenized with a Polytron™ homogenizer for 3 min at 9000 rpm, then homogenized with a two-stage Avestin™ homogenizer (3*5000 psi+1*500 psi).
Spray drying was performed under the following conditions: spray dryer BUCHI® Mini Spray Drier B-191 with a 2 mm nozzle diameter, air pressure of 60 psi. The emulsion was fed into the main chamber through peristatic pump, feed flow rate was 400 ml/h, inlet air temperature was 160° C. and outlet temperature was 65° C. The dried microcapsules were collected in a cyclone.
Particle size distribution of the final emulsion was less than 1 micron and the powder obtained by atomisation or freeze drying had good rehydration properties, low surface oil and low oxidation during the powder storage. Furthermore, the emulsion in liquid form containing 1.5% sodium caseinate and 15% sunflower oil was physically stable when pasteurized with no preservation agents added to it. Maltodextrin was used as a “wall material” to permit further drying of the emulsion. Additionally, the retention of Altrenogest was well preserved in both the liquid and dry form for a period of at least 5 months at ambient temperature.

- period over which retention of Altrenogest was well preserved: at least 5 months
Structure (SMILES): C=CC[C@]1(O)CC[C@H]2[C@@H]3CCC4=CC(=O)CCC4=C3C=C[C@@]21C [Altrenogest]
